Source: patent US11524966B1 (Valo Early Discovery, Inc., priority 2017, dated 2022)

target: T1, USP25 (USP25-His6, Boston Biochem E-546) (Homo sapiens, UniProt Q9UHP3); test: Ubiquitin-Rhodamine 110 Assay for USP25 Activity, Example A-2; format: biochemical; settings: Ubiquitin-Rhodamine 110 assay, Example A-2; read-out: USP25 A-2 IC50 range
T1 construct: His6; purchased Boston Biochem E-546
T1 sequence (Q9UHP3 1-1055): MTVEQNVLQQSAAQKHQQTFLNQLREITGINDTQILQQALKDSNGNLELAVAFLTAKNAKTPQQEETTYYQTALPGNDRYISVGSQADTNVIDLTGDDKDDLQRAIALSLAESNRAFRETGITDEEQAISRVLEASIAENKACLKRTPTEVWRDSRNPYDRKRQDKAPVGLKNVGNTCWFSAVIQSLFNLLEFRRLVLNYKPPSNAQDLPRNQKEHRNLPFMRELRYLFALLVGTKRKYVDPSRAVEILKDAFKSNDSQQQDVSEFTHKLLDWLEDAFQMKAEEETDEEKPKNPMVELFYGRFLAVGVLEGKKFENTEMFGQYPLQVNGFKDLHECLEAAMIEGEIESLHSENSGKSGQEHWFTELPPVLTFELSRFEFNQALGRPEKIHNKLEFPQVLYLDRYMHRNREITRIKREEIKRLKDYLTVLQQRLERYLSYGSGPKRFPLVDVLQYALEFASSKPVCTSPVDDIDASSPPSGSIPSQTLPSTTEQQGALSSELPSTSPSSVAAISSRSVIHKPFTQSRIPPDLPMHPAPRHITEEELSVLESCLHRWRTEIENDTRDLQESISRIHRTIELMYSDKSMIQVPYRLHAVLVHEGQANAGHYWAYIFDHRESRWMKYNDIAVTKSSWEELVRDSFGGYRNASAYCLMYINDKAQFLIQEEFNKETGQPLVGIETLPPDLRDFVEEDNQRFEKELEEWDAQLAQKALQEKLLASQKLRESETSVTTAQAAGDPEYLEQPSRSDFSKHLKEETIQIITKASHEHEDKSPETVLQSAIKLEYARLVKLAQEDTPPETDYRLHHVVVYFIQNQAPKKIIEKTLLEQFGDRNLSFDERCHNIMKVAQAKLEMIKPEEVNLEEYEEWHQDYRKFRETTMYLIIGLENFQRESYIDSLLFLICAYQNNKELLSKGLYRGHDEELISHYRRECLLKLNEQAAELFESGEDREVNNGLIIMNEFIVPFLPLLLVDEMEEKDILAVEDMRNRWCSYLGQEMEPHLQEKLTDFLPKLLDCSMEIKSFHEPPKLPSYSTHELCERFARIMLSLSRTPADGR
Summary of the method: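 Steps: compound dilutions (top 25 μM, 3-fold, 10 points) were preincubated 30 min with 75 pM USP25-His6; 25 nM Ub-Rh110 substrate was added under initial-velocity conditions; after 45 min at room temperature, 10 mM citric acid stopped the reaction before fluorescence reading.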

Compound	IC50
CCO[C@H]1CN(c2ccc3c(c2)OC[C@H](NC(=O)c2sc4nc(C)cc(C)c4c2N)C3)C[C@H]1N [Example 324, 3-amino-N-[(3R)-7-[(3R,4S)-3-amino-4-ethoxypyrrolidin-1-yl]-3,4-dihydro-2H-1-benzopyran-3-yl]-4,6-dimethylthieno[2,3-b]pyridine-2-carboxamide]	200 to 2000 nM
COC[C@@H]1CN(c2nc3c(cc2F)C[C@@H](NC(=O)c2sc4nc(C)ccc4c2N)CC3)C[C@@H]1N [Example 300, 3-amino-N-[(6S)-2-[(3R,4R)-3-amino-4-(methoxymethyl)pyrrolidin-1-yl]-3-fluoro-5,6,7,8-tetrahydroquinolin-6-yl]-6-methylthieno[2,3-b]pyridine-2-carboxamide]	> 2000 nM
N#Cc1c(N2CC3CCC(C2)N3)cc2c(c1F)C[C@@H](NC(=O)c1cnc3c(c1)[C@H]1C[C@H]1CN3)CO2 [Example 265, (6aR,7aS)-N-[(3R)-6-cyano-7-{3,8-diazabicyclo[3.2.1]octan-3-yl}-5-fluoro-3,4-dihydro-2H-1-benzopyran-3-yl]-5H,6H,6aH,7H,7aH-cyclopropa[c]1,8-naphthyridine-2-carboxamide]	200 to 2000 nM
Cc1ccc2c(N)c(C(=O)N[C@H]3CCc4nc(N5C[C@H](OC6CCC6)[C@@H](N)C5)ccc4C3)sc2n1 [Example 285, 3-amino-N-[(6S)-2-[(3S,4S)-3-amino-4-cyclobutoxypyrrolidin-1-yl]-5,6,7,8-tetrahydroquinolin-6-yl]-6-methylthieno[2,3-b]pyridine-2-carboxamide]	> 2000 nM
CO[C@H]1CN(c2ccc3c(n2)OC[C@H](NC(=O)c2sc4nc(C)cc(C)c4c2N)C3)C[C@@H]1N [Example 286, 3-amino-N-[(3R)-7-[(3S,4S)-3-amino-4-methoxypyrrolidin-1-yl]-2H,3H,4H-pyrano[2,3-b]pyridin-3-yl]-4,6-dimethylthieno[2,3-b]pyridine-2-carboxamide]	> 2000 nM
CO[C@H]1CCN(c2ccc3c(n2)CC[C@H](NC(=O)c2sc4nc(C)ccc4c2N)C3)C[C@@H]1N (single isomer, unassigned) [Example 315]	200 to 2000 nM
CO[C@@H]1CN(c2ccc3c(n2)CC[C@H](NC(=O)c2sc4nc(C)ccc4c2N)C3)C[C@@H]1N [Example 269, 3-amino-N-[(6S)-2-[(3S,4R)-3-amino-4-methoxypyrrolidin-1-yl]-5,6,7,8-tetrahydroquinolin-6-yl]-6-methylthieno[2,3-b]pyridine-2-carboxamide]	> 2000 nM
CO[C@@]1(C)CN(c2ccc3c(n2)CC[C@H](NC(=O)c2sc4nc(C)cnc4c2N)C3)C[C@@H]1N [Example 279, 7-amino-N-[(6S)-2-[(3S,4S)-4-amino-3-methoxy-3-methylpyrrolidin-1-yl]-5,6,7,8-tetrahydroquinolin-6-yl]-3-methylthieno[2,3-b]pyrazine-6-carboxamide]	> 2000 nM
COC[C@H]1CN(c2nc3c(cc2F)C[C@@H](NC(=O)c2sc4nc(C)ccc4c2N)CC3)C[C@H]1N [Example 301, 3-amino-N-[(6S)-2-[(3S,4S)-3-amino-4-(methoxymethyl)pyrrolidin-1-yl]-3-fluoro-5,6,7,8-tetrahydroquinolin-6-yl]-6-methylthieno[2,3-b]pyridine-2-carboxamide]	> 2000 nM
CN[C@H]1CN(c2ccc3c(n2)CC[C@H](NC(=O)c2sc4nc(C)cc(C)c4c2N)C3)C[C@@H]1OC [Example 312, 3-amino-N-[(6S)-2-[(3S,4S)-3-methoxy-4-(methylamino)pyrrolidin-1-yl]-5,6,7,8-tetrahydroquinolin-6-yl]-4,6-dimethylthieno[2,3-b]pyridine-2-carboxamide]	> 2000 nM
CN[C@H]1CN(c2ccc3c(n2)CC[C@H](NC(=O)c2sc4nc(C)ccc4c2N)C3)C[C@@H]1OC [Example 311, 3-amino-N-[(6S)-2-[(3S,4S)-3-methoxy-4-(methylamino)pyrrolidin-1-yl]-5,6,7,8-tetrahydroquinolin-6-yl]-6-methylthieno[2,3-b]pyridine-2-carboxamide]	> 2000 nM
Cc1ccc2c(N)c(C(=O)N[C@H]3CCc4nc(N5C[C@@H](N)[C@@H](OC(C)C)C5)ccc4C3)sc2n1 [Example 322, 3-amino-N-[(6S)-2-[(3R,4S)-3-amino-4-(propan-2-yloxy)pyrrolidin-1-yl]-5,6,7,8-tetrahydroquinolin-6-yl]-6-methylthieno[2,3-b]pyridine-2-carboxamide]	> 2000 nM
Cc1ccc2c(N)c(C(=O)N[C@H]3COc4cc(N5C[C@@H](N)[C@@H](F)C5)ccc4C3)sc2n1 (single isomer, unassigned) [Example 3-5]	200 to 2000 nM
CO[C@]1(C)CN(c2ccc3c(n2)CC[C@H](NC(=O)c2sc4nc(C)cnc4c2N)C3)C[C@H]1N [Example 280, 7-amino-N-[(6S)-2-[(3R,4R)-4-amino-3-methoxy-3-methylpyrrolidin-1-yl]-5,6,7,8-tetrahydroquinolin-6-yl]-3-methylthieno[2,3-b]pyrazine-6-carboxamide]	> 2000 nM
Cc1ccc2c(N)c(C(=O)N[C@H]3COc4cc(N5C[C@@H](N)[C@@]6(CCO6)C5)ccc4C3)sc2n1 [Example 339, 3-amino-N-[(3R)-7-[(4R,8R)-8-amino-1-oxa-6-azaspiro[3.4]octan-6-yl]-3,4-dihydro-2H-1-benzopyran-3-yl]-6-methylthieno[2,3-b]pyridine-2-carboxamide]	200 to 2000 nM
